This note sets out measurements from patent publication US7304074B2, “Substituted 1,5-naphthyridine azolinones” (Hoffmann-La Roche Inc., priority 2005, dated 2007).

Some results are limits rather than exact numbers.

Assay type in all cases: biochemical
Experiment [1] addresses CDK1/Cyclin B (Homo sapiens, UniProt P06493). The experiment is described as follows: CDK1/Cyclin B kinase assay (FlashPlate or HTRF). Conditions: recombinant human CDK1/Cyclin B, Rb substrate; Ki=IC50/(1+[S]/Km). As to the method: To determine inhibition of CDK1 activity, either FlashPlate™ (NEN™-Life Science Products) assay or HTRF assay was performed. Both types of kinase assays were carried out using recombinant human CDK1/Cyclin B complex. GST-cyclinB (GST-cycB) and CDK1 cDNA clones in baculovirus vectors were provided by Dr. W. Harper at the Baylor College of Medicine, Houston, Tex. Proteins were co-expressed in High Five™ insect cells and the complex was purified on glutathione Sepharose resin (Pharmacia, Piscataway, N.J.) as previously described (Harper, J. W. et al. Cell 1993, 75, 805-816). A 6×-Histidine tagged truncated form of retinoblastoma (Rb) protein (amino acid 386-928) was used as the substrate for the CDK1/Cyclin B assay (the expression plasmid was provided by Dr. Veronica Sullivan, Department of Molecular Virology, Roche Research Centre, Welwyn Garden City, United Kingdom). The Rb protein is a natural substrate for phosphorylation by CDK1 (see Herwig and Strauss Eur. J. Biochem. Vol. 246 (1997) pp. 581-601 and the references cited therein). The expression of the 62 Kd protein was under the control of an IPTG inducible promoter in an M15 E. coli strain. Cells were lysed by sonication and purification was carried out by binding lysates at pH 8.0 to a Ni-chelated agarose column pretreated with 1 mM imidazole. The resin was then washed several times with incrementally decreasing pH buffers to pH 6.0, and eluted with 500 mM imidazole. Eluted protein was dialysed against 20 mM HEPES pH 7.5, 30% glycerol, 200 mM NaCl, and 1 mM DTT. Purified Rb fusion protein stocks were quantitated for protein concentration, aliquoted, and stored at −70° C.
For the FlashPlate kinase assay, 96-well FlashPlates were coated with Rb protein at 10 μg/ml, using 100 μl per well. Plates were incubated at 4° C. overnight or at room temperature for 3 hours on a shaker. To control for nonspecific phosphorylation, one row of wells was coated with 100 μl/well coating buffer (20 mM HEPES, 0.2 M NaCl). Plates were then washed twice with wash buffer (0.01% Tween 20 in phosphate-buffered saline). Compounds to be tested (“test compounds”) were added to the wells at 5×final concentration. Reactions were initiated by immediate addition of 40 μl reaction mix (25 mM HEPES, 20 mM MgCl2, 0.002% Tween 20, 2 mM DTT, 1 μM ATP, 3.3 nM 33P-ATP) and a sufficient amount of enzyme to give counts that were at least 10-fold above background. Plates were incubated at room temperature on a shaker for 30 minutes. Plates were washed four times with the wash buffer, sealed, and counted on the TopCount scintillation counter (Packard Instrument Co., Downers Grove, Ill.). The percent inhibition of Rb phosphorylation, which is a measure of the inhibition of CDK1 activity, was determined according to the following formula:
[formula] where “test compound” refers to the average counts per minute of the test duplicates, “nonspecific” refers to the average counts per minute when no CDK1/Cyclin B, etc., was added, and “total” refers to the average counts per minute when no compound was added. […] The value of the inhibitor constant Ki is calculated by the following: Ki=IC50/(1+[S]/Km), where [S] is the ATP concentration and Km is Michaelis constant.
The Homogeneous Time Resolved Fluorescence (HTRF) kinase assay was carried out in 96-well polypropylene plates (BD Biosciences, Bedford, Mass.). […]
A general note: Time-resolved FRET reads energy transfer from a long-lived donor to a nearby acceptor.

Experiment [2] concerns the target CDK2 (Homo sapiens, UniProt P24941). Description: CDK2 kinase inhibition (selectivity).
Experiment [3] concerns the target CDK4 (Homo sapiens, UniProt P11802). The experiment is described as follows: CDK4 kinase inhibition (selectivity).

Sequence of CDK1/Cyclin B (P06493 whole entry, the tested form may be a part): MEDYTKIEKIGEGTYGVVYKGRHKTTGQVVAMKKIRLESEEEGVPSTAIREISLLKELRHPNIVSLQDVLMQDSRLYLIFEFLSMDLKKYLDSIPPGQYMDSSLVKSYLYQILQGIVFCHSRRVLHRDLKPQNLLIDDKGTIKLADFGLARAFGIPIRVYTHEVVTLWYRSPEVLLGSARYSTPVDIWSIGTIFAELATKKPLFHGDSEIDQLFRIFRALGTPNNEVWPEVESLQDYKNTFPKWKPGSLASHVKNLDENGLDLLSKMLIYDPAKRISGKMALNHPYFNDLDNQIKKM
Sequence of CDK1/Cyclin B (P14635 whole entry partner, the tested form may be a part): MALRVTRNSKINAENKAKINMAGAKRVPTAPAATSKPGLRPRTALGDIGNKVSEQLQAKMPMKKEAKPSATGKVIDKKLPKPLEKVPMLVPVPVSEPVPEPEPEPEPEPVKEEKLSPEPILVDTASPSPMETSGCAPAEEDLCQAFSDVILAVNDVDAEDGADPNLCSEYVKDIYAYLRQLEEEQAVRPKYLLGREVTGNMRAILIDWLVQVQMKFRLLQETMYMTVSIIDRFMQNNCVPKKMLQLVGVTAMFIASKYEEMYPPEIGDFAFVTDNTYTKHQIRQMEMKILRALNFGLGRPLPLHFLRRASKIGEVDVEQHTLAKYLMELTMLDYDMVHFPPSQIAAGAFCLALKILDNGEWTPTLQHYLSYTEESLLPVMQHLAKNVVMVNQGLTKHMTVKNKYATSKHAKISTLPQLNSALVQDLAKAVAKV
Sequence of CDK4 (P11802 whole entry, species assumed): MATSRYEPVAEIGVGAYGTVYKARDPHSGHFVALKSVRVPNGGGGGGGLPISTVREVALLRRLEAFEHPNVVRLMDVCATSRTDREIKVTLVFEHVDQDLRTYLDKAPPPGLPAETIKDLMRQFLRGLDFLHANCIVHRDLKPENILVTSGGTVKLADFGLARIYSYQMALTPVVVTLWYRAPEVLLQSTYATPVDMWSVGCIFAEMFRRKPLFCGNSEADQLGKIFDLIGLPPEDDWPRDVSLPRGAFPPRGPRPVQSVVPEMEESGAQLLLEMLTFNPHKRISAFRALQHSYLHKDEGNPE
Sequence of CDK4 (P24385 whole entry partner, species assumed): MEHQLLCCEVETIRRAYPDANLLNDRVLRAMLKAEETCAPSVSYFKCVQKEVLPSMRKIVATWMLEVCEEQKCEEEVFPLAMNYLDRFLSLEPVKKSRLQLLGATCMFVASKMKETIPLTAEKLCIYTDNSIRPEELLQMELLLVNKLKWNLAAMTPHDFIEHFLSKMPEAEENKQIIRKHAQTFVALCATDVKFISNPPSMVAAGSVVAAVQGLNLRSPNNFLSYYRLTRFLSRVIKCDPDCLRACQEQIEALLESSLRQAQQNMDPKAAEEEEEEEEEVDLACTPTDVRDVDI

What is called Ki is a measure of affinity in units of concentration, obtained from inhibition or displacement. Regarding `CC(C)Oc1c(C#N)cnc2ccc(/C=C3\SC(N)=NC3=O)nc12` [Example 1, 6-(2-Amino-4-oxo-4H-thiazol-5-ylidenemethyl)-4-isopropoxy-[1,5]naphthyridine-3-carbonitrile], the Ki in experiment [1] is 8 nM; in experiment [2] it was 18 nM; in experiment [3], above 10000 nM.

In the case of `CC(C)Oc1c(C#N)cnc2ccc(/C=C3\SC(NCc4ccccc4Cl)=NC3=O)nc12` [Example 2], the Ki in experiment [1] was 150 nM; in experiment [2] it was 610 nM; in experiment [3] it was above 10000 nM.

Turning to `CC(C)Oc1c(C#N)cnc2ccc(/C=C3\SC(N[C@@H]4C[C@H]4c4ccccc4)=NC3=O)nc12` [Example 3, 4-Isopropoxy-6-[4-oxo-2-(2-phenyl-cyclopropylamino)-4H-thiazol-5-ylidenemethyl]-[1,5]naphthyridine-3-carbonitrile], the Ki was 78 nM in experiment [1], 351 nM in experiment [2] and above 10000 nM in experiment [3].

With `CC(C)Oc1c(C#N)cnc2ccc(/C=C3\SC(NCc4cccs4)=NC3=O)nc12` [Example 4, 4-Isopropoxy-6-{4-oxo-2-[(thiophen-2-ylmethyl)-amino]-4H-thiazol-5-ylidenemethyl}-[1,5]naphthyridine-3-carbonitrile], the Ki in experiment [1] is 47 nM; in experiment [2], 554 nM; in experiment [3], above 10000 nM.

For `Cc1cccc(Cl)c1CNC1=NC(=O)/C(=C/c2ccc3ncc(C#N)cc3n2)S1` [Example 17, 6-[2-(2-Chloro-6-methyl-benzylamino)-4-oxo-4H-thiazol-5-ylidenemethyl]-[1,5]naphthyridine-3-carbonitrile], the Ki in experiment [1] is 539 nM; in experiment [2], above 10000 nM.
